The star is where a group is joined. AMC = Cc1cc(=O)oc2cc(N*)ccc12; Tos = Cc1ccc(S(=O)(=O)*)cc1
test system: human lung tryptase; assay: Screening of tryptase substrates: responsiveness of fluorescent MCA substrates to tryptase; type: biochemical; details: relative value with the sensitivity of ^iBoc-Ala-Ala-Arg-MCA defined as 100; 100 μM substrate, 50 mM Tris-HCl pH 8.0, ex 365 nm / em 470 nm
Method: In addition to reference to past documents as described above, ^iBoc-Y-X-Arg-MCA in which Gly, Ala, Abu, Val, Pro, Phe or hydrophilic Lys having distinctive bulkiness was introduced to positions P2 and P3 was synthesized as listed in Table 1 by a peptide library approach, and activity measurement was performed. Abu (2-aminobutyric acid) is a non-protein amino acid, but was added as an optimum peptide sequence search tool.
The activity measurement was performed by the following method.
(1) A stock of a substrate solution was provided as a 2.0 mM solution in DMSO. (2) The stock of the substrate solution was diluted 20-fold with 50 mM Tris-HCl (pH 8.0) to prepare a 100 μM solution. 100 μL thereof was added to a polypropylene microtube, further 2 μL of a commercially available tryptase solution (manufactured by Cappel Laboratories, Inc.) was added thereto, and the tube was lightly vortexed for mixing. Immediately thereafter, change in fluorescence intensity at 470 nm was measured at an excitation wavelength of 365 nm using an enzyme activity measurement apparatus (manufactured by Peptide Support Ltd., prototype).

Which Tryptase activity does the source give for ^iBoc-Ala-Val-Arg-MCA here?
Its Tryptase activity is 50.

How did the Tryptase activity turn out when ^iBoc-Ala-Ala-Arg-MCA was run?
Its Tryptase activity is 100.

^iBoc-Ala-Abu-Arg-MCA was tested. Which Tryptase activity did it give?
Its Tryptase activity is 80.

^iBoc-Ala-Lys-Arg-MCA was tested. Which Tryptase activity did it give?
The Tryptase activity was 11.

How did the Tryptase activity turn out when ^iBoc-Lys-Ala-Arg-MCA was run?
Its Tryptase activity is 167.

For ^iBoc-Abu-Abu-Arg-MCA, which Tryptase activity is on record?
Its Tryptase activity is 69.

`Cc1cc(=O)oc2cc(NC(=O)C(CCCNC(=N)N)NC(=O)OCC(C)C)ccc12` (stereo not drawn) [^iBoc-Arg-MCA] was tested. Which Tryptase activity did it give?
Its Tryptase activity is 0.

For ^iBoc-Val-Pro-Arg-MCA, which Tryptase activity is on record?
The Tryptase activity was 20.

For ^iBoc-Lys-Gly-Arg-MCA, which Tryptase activity is on record?
The Tryptase activity was 75.

For ^iBoc-Phe-Ala-Arg-MCA, which Tryptase activity is on record?
The Tryptase activity was 62.

With ^iBoc-Abu-Ala-Arg-MCA as the compound, how does the Tryptase activity read?
Its Tryptase activity is 109.

Which Tryptase activity does the source give for ^iBoc-Ala-Phe-Arg-MCA here?
The Tryptase activity was 1.

Which Tryptase activity does the source give for “Tos-Gly-Pro-Arg-{AMC} [reference compound]” here?
Its Tryptase activity is 25.

For ^iBoc-Lys-Pro-Arg-MCA, which Tryptase activity is on record?
Its Tryptase activity is 175.

For ^iBoc-Val-Ala-Arg-MCA, which Tryptase activity is on record?
Its Tryptase activity is 53.

^iBoc-Gly-Pro-Arg-MCA was tested. Which Tryptase activity did it give?
The Tryptase activity was 9.

^iBoc-Phe-Gly-Arg-MCA was tested. Which Tryptase activity did it give?
The Tryptase activity was 5.

With ^iBoc-Gly-Gly-Arg-MCA as the compound, how does the Tryptase activity read?
Its Tryptase activity is 0.

Which Tryptase activity does the source give for ^iBoc-Phe-Ser-Arg-MCA here?
The Tryptase activity was 11.

same assay, conditions: screening of Table 1

Which “tryptase responsiveness compared with ^iBoc-Ala-Ala-Arg-MCA (in words)” value does the source give for ^iBoc-Lys-Ala-Arg-MCA here?
The value was “higher tryptase responsiveness than that of ^iBoc-Ala-Ala-Arg-MCA”.

Which “tryptase responsiveness compared with ^iBoc-Ala-Ala-Arg-MCA (in words)” value does the source give for ^iBoc-Abu-Ala-Arg-MCA here?
Its value is “higher tryptase responsiveness than that of ^iBoc-Ala-Ala-Arg-MCA”.

How did the “tryptase responsiveness compared with ^iBoc-Ala-Ala-Arg-MCA (in words)” value turn out when ^iBoc-Lys-Pro-Arg-MCA was run?
The value was “tryptase responsiveness slightly less than two times higher than that of ^iBoc-Ala-Ala-Arg-MCA”.

test system: Tryptase in Serum; assay: Human serum enzyme activity with Suc-Ala-Ala-Arg-MCA-linked poly(L-lysine) substrate after addition of inhibitors; type: biochemical; details: human serum; Suc-Ala-Ala-Arg-MCA-linked poly(L-lysine) substrate
Method: Suc-Ala-Ala-Arg-MCA-linked poly(L-lysine) prepared in Example 2 was used to test whether to be able to specifically measure tryptase activity in serum.
(1) 20.0 mg of Suc-Ala-Ala-Arg-MCA-linked poly(L-lysine) was dissolved in 50 mL of 50 mM Tris-HCl (pH 8.0). (2) 2 μL of commercially available human serum (manufactured by BioWest) was mixed with 2 μL of PBS(−) (pH 7.4) (control) or 2 μL of 10 μM nafamostat (tryptase inhibitor, manufactured by Tokyo Chemical Industry Co., Ltd.) or 2 μL of 10 U/mL hirudin (thrombin inhibitor, manufactured by Sigma-Aldrich Co., LLC). After a lapse of 10 minutes at room temperature, each mixed solution was added to 100 μL of the solution prepared in the step (1). Immediately thereafter, enzyme activity was measured.

How did the “inhibition of enzyme activity in serum detected with the macromolecular substrate (in words)” value turn out when `N=C(N)c1ccc2cc(OC(=O)c3ccc(N=C(N)N)cc3)ccc2c1` [nafamostat] was run?
Its value is “completely inhibited”.

same assay, conditions: relative value with serum + PBS(-) defined as 100; human serum preincubated 10 min with 2 μL of 10 μM nafamostat or 10 U/mL hirudin; substrate Suc-Ala-Ala-Arg-MCA-linked poly(L-lysine)

How did the Enzyme activity turn out when `N=C(N)c1ccc2cc(OC(=O)c3ccc(N=C(N)N)cc3)ccc2c1` [nafamostat] was run?
Its Enzyme activity is 0.

hirudin was tested. Which Enzyme activity did it give?
The Enzyme activity was 83.

Reference: patent US20220364141A1, “Tryptase Activity Measurement Substrate” (National University Corporation Tokyo University of …, priority 2019, published 2022)
